Holding throughout (type): in vivo
The test system of data set [1] is bean aphid (Aphis fabae Scop.). Put plainly: Bean Aphid Foliage Spray Test. More on the design: key to pesticidal activity rating, Aphid: A: excellent control; B: partial control; C: no control. How it is done: Adults and nymphal stages of the bean aphid (Aphis fabae Scop.) reared on potted dwarf nasturtium plants at 65°-70° F. and 50-70 percent relative humidity, constituted the test insects. For testing purposes, the number of aphids per pot was standardized to 100-150 by trimming plants containing excess aphids.
The test compounds were formulated by diluting the stock suspension with water to give a suspension containing 500 parts of test compound per million parts of final formulation.
The potted plants (one pot per compound tested) infested with 100-150 aphids, were placed on a revolving turntable and sprayed with 100-110 milliliters of test compound formulation by use of a DeVilbiss spray gun set at 40 psig. air pressure. This application, which lasted 25 seconds, was sufficient to wet the plants to run-off. As a control, 100-110 milliliters of a water-acetone-emulsifier solution containing no test compound were also sprayed on infested plants. After spraying, the pots were placed on their sides on a sheet of white standard mimeograph paper which had been previously ruled to facilitate counting. Temperature and humidity in the test room during the 24 hour holding period were 65°-70° F. and 50-70 percent, respectively. Aphids which fell onto the paper and were unable to remain standing after being uprighted were considered dead. Aphids remaining on the plants were observed closely for movement and those which were unable to move the length of the body upon stimulation by prodding were considered dead. Percent mortality was recorded for various concentration levels.
(§1) In these tests the pesticidal activity of the compounds against aphid, mite, Southern Armyworm, Bean Beetle and House fly was rated as follows:
(§2) The LD50 values shown in the above Table II were determined by testing the compositions over an appropriate concentration range obtained by serial dilution of the stock suspension with water. The percent kill was plotted on log-probit graph paper versus parts per million concentration, and the LD50 read from an eye-fitted line drawn through the resultant points.

The test system of data set [2] is two-spotted mite (Tetranychus urticae Koch). In words: Mite Foliage Spray Test. More on the design: key to pesticidal activity rating, Mite: A: excellent control; B: partial control; C: no control. On the procedure:
Adults and nymphal stages of the two-spotted mite (Tetranychus urticae Koch), reared on Tendergreen bean plants at 80±5 percent relative humidity, were the test organisms. Infested leaves from a stock culture were placed on the primary leaves of two bean plants 6 to 8 inches in height, growing in a 21/2 inch clay pot. 150-200 Mites, a sufficient number for testing, transferred from the excised leaves to the fresh plants in a period of 24 hours. Following the 24 hour transfer period, the excised leaves were removed from the infested plants. The test compounds were formulated by diluting the stock suspension with water to give a suspension containing 500 parts of test compound per million parts of final formulation. The potted plants (one pot per compound) were placed on a revolving turntable and sprayed with 100-110 milliliters of test compound formulation by use of a DeVilbiss spray gun set at 40 psig. air pressure. This application, which lasted 25 seconds, was sufficient to wet the plants to run-off. As a control, 100-110 milliliters of a water solution containing acetone and emulsifier in the same concentrations as the test compound formulation, but containing no test compound, were also sprayed on infested plants. The sprayed plants were held at 80±5 percent relative humidity for 6 days, after which a mortality count of motile forms was made. Microscopic examination for motile forms was made on the leaves of the test plants. Any individual which was capable of locomotion upon prodding was considered living.
as §1, §2

The subject of data set [3] is southern armyworm (Prodenia eridania, (Cram.)). Put plainly: Southern Armyworm Leaf Spray Test. More on the design: key to pesticidal activity rating, Armyworm: A: excellent control; B: partial control; C: no control. On the procedure:
Larvae of the southern armyworm (Prodenia eridania, (Cram.)), reared on Tendergreen bean plants at a temperature of 80°±5° F. and a relative humidity of 50±5 percent, constituted the test insects.
The test compounds were formulated by diluting the stock suspension with water to give a suspension containing 500 parts of test compound per million parts of final formulation. Potted Tendergreen bean plants of standard height and age were placed on a revolving turntable and sprayed with 100-110 milliliters of test compound formulation by use of a DeVilbiss spray gun set at 10 psig air pressure. This application, which lasted 25 seconds, was sufficient to wet plants to run-off. As a control, 100-110 milliliters of a water-acetone-emulsifier solution containing no test compound were also sprayed on infested plants. When dry, the paired leaves were separated and each one was placed in a 9 centimeter Petri dish lined with moistened filter paper. Five randomly selected larvae were introduced into each dish and the dishes were closed. The closed dishes were labeled and held at 80°-85° F. for 3 days. Although the larvae could easily consume the whole leaf within 24 hours, no more food was added. Larvae which were unable to move the length of the body, even upon stimulation by prodding, were considered dead. Percent mortality was recorded for various concentration levels.
as §1, §2

The test system of data set [4] is house flies (Musca domestica, L.). In words: Fly Bait Test. Details: key to pesticidal activity rating, Housefly: A: excellent control; B: partial control; C: no control. How it is done: Four to 6 day old adult house flies (Musca domestica, L.), reared according to the specifications of the Chemical Specialities Manufacturing Association (Blue Book, McNair-Dorland Co., N.Y. 1954; pages 243-244, 261) under controlled conditions of 80°±5° F. and 50±5 percent relative humidity, were the test insects. The flies were immobilized by anesthetizing with carbon dioxide and twenty five immobilized individuals, males and females, were transferred to a cage consisting of a standard food strainer about 5 inches in diameter which was inverted over a wrapping-paper-covered surface. The test compounds were formulated by diluting the stock suspension with a 10 percent (by weight) sugar solution to give a suspension containing 500 parts of test compound per million parts of final formulation, by weight. Ten milliliters of the test formulation were added to a souffle cup containing a 1-inch square of an absorbent cotton pad. This bait cup was introduced and centered on the blotting paper under the food strainer prior to admitting the anesthetized flies. The caged flies were allowed to feed on the bait for 24 hours, at a temperature of 80°±5° F. and the relative humidity of 50±5 percent.
as §1, §2

Data set [5] in a line: Peroral toxicity to mammals (rat). The conditions noted are these: in vivo, po; rat, peroral, Table II; read-out: Rat P.O. LD50. On the procedure:
(§3) Certain of these compositions were also evaluated to determine their peroral toxicity to mammals. The animal selected for this experiment was the rat. The test results obtained are expressed in terms of the number of milligrams of composition per kilogram of weight of the animal required to achieve a mortality rate of 50 percent (LD50).

The subject of another data set is rat. Put plainly: Peroral toxicity to mammals (rat). The conditions noted are these: fraction of the toxicity of the methylcarbamoyl compound; rat P.O. LD50. How it is done:
as §3

Data set [6] deals with aphid, mite, Southern Armyworm, Bean Beetle and House fly. In words: Overall pesticidal activity / insect toxicity compared with methylcarbamoyl derivatives. The conditions noted are these: all cases except the bean-beetle; Table II.
Source text: as §1
In the above Table, A indicates excellent control, B indicates partial control and C indicates no control. For comparison purposes, there is provided immediately below the data presented for the trihalomethanesulfenyl derivative the activity measurements achieved from the corresponding methyl-carbamoyl derivative adjacent to the chemical designation --NHCH3.
as §2

Converted amounts (≈) assume the structure as drawn.

As to `CN(SC(Cl)(Cl)Cl)C(=O)ON=C1CSCCS1` [2-[(N-METHYL-N-TRICHLOROMETHANESULFENYL)-CARBAMOYLOXIMINO]-1,4-DITHIANE], the “pesticidal activity rating, Aphid” value in data set [1] (500 parts per million, 24 hour) is reported as “A”. In addition, the LC50 in data set [1] (Aphis fabae, foliar, 24 h, Table II, read-out: Insect Toxicity, LD50, Aphid) stood at 13 µg/mL (≈ 36.5 µM); in data set [2] (Tetranychus urticae, foliar, Table II, read-out: Insect Toxicity, LD50, Mite), 7 µg/mL (≈ 19.7 µM); in data set [3] (Spodoptera eridania, 72 h, Table II, read-out: Insect Toxicity, LD50, Armyworm), 52 µg/mL (≈ 146 µM); in data set [4] (Musca domestica, 24 h, Table II, read-out: Insect Toxicity, LD50, House fly) it was 2 µg/mL (≈ 5.62 µM). Also, the “pesticidal activity rating, Mite” value in data set [2] (500 parts per million, 6 days) is reported as “A”. For the same compound, the “pesticidal activity rating, Armyworm” value in data set [3] (500 parts per million, 3 days) is on record as “A”. For the same compound, the “pesticidal activity rating, Housefly” value in data set [4] (500 parts per million, 24 hours) was “A”. For the same compound, the LD50 in data set [5] is 149 mg/kg. In the data set with rat, the “mammalian toxicity relative to the methylcarbamoyl compound” value is recorded as 1/10. In data set [6], the “insect toxicity relative to the methylcarbamoyl composition” value is “essentially equivalent”.

(Values after patent US4111955A, “N-Trihalomethanesulfenyl carbamoyloximino di-sulfur heterocyclic compounds” (priority 1976, dated 1978).)
